Measured values as given in patent publication US20070184098A1, “Esters of flavonoids with w-substituted c6-c22 fatty acids” (priority 2003, published 2007).
Several values for one entry are separate records, joined by “and”; a condition that tells them apart may be missing. Equal values may be shown once. Read-outs that look alike come from different tables or passages of the source.

What was measured:
Human fibroblasts = experiment: UVA cytophotoprotection, anti-oxidative effect (MDA released, cell proteins, GSH) on UVA-irradiated human fibroblasts; format: cell-based; details: UVA 20 J/cm2; for Cell GSH/protein ratio: irradiated control = 78, not irradiated = 100; for MDA released: irradiated control = 100, not irradiated = 0; for Cell proteins: irradiated control = 107, not irradiated = 100
Procedure: The cytoprotection against UVA irradiation has been evaluated by a test on human fibroblasts because UVA radiation penetrates through the epidermis until the dermis where it induces oxidative stress, mainly by activation of photosensitising biological components, which catalyse the formation of ROS like anion superoxide, hydrogen peroxide and singlet oxygen, and lipoperoxydation of the cell membrane. These oxidative stress effects are evaluated in vitro due to measuring of the level of released MDA (malondialdehyde) and of intracellular GSH (reduced glutathion) (Morliere P., Moisan A., Santus R., Huppe G., Mazière J. C., Dubertret L.: UV-A induced lipid peroxydation in cultured human fibroblasts Biochim. Biophys. Acta (1991) 1084, 3:261-269).
The lipoperoxides formed after UVA irradiation undergo a decay into malondialdehyde which can form cross-links between many biological molecules like proteins with inhibition of enzymes and nucleic bases with risk of mutagenesis. Glutathione (GSH) is a peptide produced by the cells to protect them from oxidative stress or certain pollutants like mercury or lead. An increase in the GSH level enhances the activity of glutathion-S-transferase, a detoxification enzyme. GSH is evaluated according to the method of Hissin (Hissin P. J., Hilf R. A fluorometric method for determination of oxydised and reduced Glutathione in tissues. Analytical Biochemistry (1977) vol 74, pp 214-226).
Human fibroblasts were inoculated with growth medium (DMEM+FCS) and incubated 3 days at 37° C., with 5% CO2. The growth medium was then exchanged with medium containing an ingredient to be tested and incubated 2 days at 37° C. with CO2=5%. After an exchange of medium with balanced salt solution, the cell culture was irradiated by UVA 20 J/cm^2. Cell proteins and GSH were measured, and MDA released in the supernatant was determined spectrophotometrically.

[1] = Solubility in hydrophilic and lipophilic solvent by HPLC; format: physicochemical; details: stirring 1 hour at room temperature; for solubility at 1 h: thermodynamic from solid
Procedure: The solubility was determined by HPLC measurement after stirring during 1 hour at room temperature.

Human keratinocytes = experiment: UVB cytophotoprotection and anti-inflammatory effect (DNA, LDH and PGE2 released) on UVB-irradiated human keratinocytes; format: cell-based; details: UVB 50 mJ/cm2; for Keratinocytes DNA: irradiated control = 23, not irradiated = 100; for LDH released / PGE2 released: irradiated control = 100, not irradiated = 0
Source text: The arachidonic cascade is an important mechanism of cutaneous inflammation. This cascade may be induced by several factors, particularly by UVB irradiation. UVB induces the inflammatory response by activation of phospholipase A2 (PLA2), which results in a release of arachidonic acid from cell membranes. Then other specific enzymes (so called cyclo-oxygenases) transform arachidonic acid in active components called prostaglandin (PG) which are secreted from the cells. The fixation of certain prostaglandins (PGE2) on specific skin receptors is followed by redness and swelling on human skin. On cultured human cells, these UVB effects on cell's membrane are associated with a release of a cytoplasmic enzyme into the supernatant medium: Lactate Dehydrogenase or LDH.
Human keratinocytes were inoculated with growth medium (DMEM+FCS) and incubated 3 days at 37° C. and 5% CO2. The growth medium was then exchanged with balanced salt solution containing the ingredient to be tested, the cell culture was irradiated by UVB 50 mJ/cm^2 (DUKE GL40E lamp). After 1 day of incubation at 37° C. with 5% CO2, LDH and PGE2 released in the medium were determined, and cellular DNA was measured using a fluorescent probe to determine the cell viability.

Lipoxygenase = experiment: Anti-free radical activity: superoxide anions released by lipoxygenase, Luminol probe; format: biochemical; details: mean of 2 assays; lipoxygenase with unsaturated fatty acid substrate
Procedure: The anti-free radical (anti-FR) activity has been evaluated by biochemical tests to address the potential for scavenging superoxide anion (O2°).
Lipoxygenase was incubated with a specific substrate (unsaturated fatty acid) and the flavonoid esters. Then the rate of released superoxide anions was determined using Luminol luminescent probe to calculate the IC50 (mean of 2 assays).

Compound	Cell GSH/protein ratio (Human fibroblasts; dose 0.001 % w/v) [% against control]	MDA released (Human fibroblasts; dose 0.001 % w/v) [% against control]	Cell proteins (Human fibroblasts; dose 0.001 % w/v) [% against control]	Cell GSH/protein ratio (Human fibroblasts; dose 0.003 % w/v) [% against control]	MDA released (Human fibroblasts; dose 0.003 % w/v) [% against control]	Cell proteins (Human fibroblasts; dose 0.003 % w/v) [% against control]	Solubility in butylene glycol [1]	Solubility in octyl-dodecanol [1]	IC50 (w/v), released superoxide anions (Lipoxygenase) [w/v]	Keratinocytes DNA (Human keratinocytes; dose 0.001 % w/v) [% against control]	LDH released (Human keratinocytes; dose 0.001 % w/v) [% against control]	PGE2 released (Human keratinocytes; dose 0.001 % w/v) [% against control]	Keratinocytes DNA (Human keratinocytes; dose 0.003 % w/v) [% against control]	LDH released (Human keratinocytes; dose 0.003 % w/v) [% against control]	PGE2 released (Human keratinocytes; dose 0.003 % w/v) [% against control]	Cell GSH/protein ratio (Human fibroblasts; dose 0.01 % w/v) [% against control]	MDA released (Human fibroblasts; dose 0.01 % w/v) [% against control]	Cell proteins (Human fibroblasts; dose 0.01 % w/v) [% against control]	Keratinocytes DNA (Human keratinocytes; dose 0.01 % w/v) [% against control]	LDH released (Human keratinocytes; dose 0.01 % w/v) [% against control]	also measured
CC1OC(OCC2OC(Oc3c(-c4ccc(O)c(O)c4)oc4cc(O)cc(O)c4c3=O)C(O)C(O)C2O)C(O)C(O)C1OC(=O)CCCCCCCCCCS (stereo not drawn) [Rutin 11-mercaptoundecanoate]	131	34	94	283	0	89	54.5 g/L and 67.2 mM	0.15 g/L and 0.19 mM													Keratinocytes DNA (Human keratinocytes; dose 0.0001 % w/v): 44 % against control; LDH released (Human keratinocytes; dose 0.0001 % w/v): 75 % against control; PGE2 released (Human keratinocytes; dose 0.0001 % w/v): 26 % against control; Keratinocytes DNA (Human keratinocytes; dose 0.0003 % w/v): 41 % against control; LDH released (Human keratinocytes; dose 0.0003 % w/v): 92 % against control; PGE2 released (Human keratinocytes; dose 0.0003 % w/v): 12 % against control
CC1OC(OCC2OC(Oc3c(-c4ccc(O)c(O)c4)oc4cc(O)cc(O)c4c3=O)C(O)C(O)C2O)C(O)C(O)C1OC(=O)CCCCCCCCCCCCCCC(=O)OC1C(C)OC(OCC2OC(Oc3c(-c4ccc(O)c(O)c4)oc4cc(O)cc(O)c4c3=O)C(O)C(O)C2O)C(O)C1O (stereo not drawn) [Dirutin hexadecandioate, dirutin hexadecandioate]	98	39	138	154	9	149			0.0028	38	44	3	35	33	1						
CC1OC(OCC2OC(Oc3c(-c4ccc(O)c(O)c4)oc4cc(O)cc(O)c4c3=O)C(O)C(O)C2O)C(O)C(O)C1OC(=O)CCCCCCCCCCCCCCC(=O)O (stereo not drawn) [Rutin hexadecandioate, rutin hexadecandioate]				101	46	129	39.4 g/L and 44.7 mM	0.13 g/L and 0.15 mM	0.0036				24	53	2	75	21	178	39	19	Solubility in water [1]: 0.38 g/L and 0.43 mM; PGE2 released (Human keratinocytes; dose 0.01 % w/v): 0 % against control
C[C@@H]1O[C@@H](OC[C@H]2O[C@@H](Oc3c(-c4ccc(O)c(O)c4)oc4cc(O)cc(O)c4c3=O)[C@H](O)[C@@H](O)[C@@H]2O)[C@H](O)[C@H](O)[C@H]1O [Rutin, reference compound]				72	79	126										71	72	128			solubility at 1 h ([1]; butylene glycol, organic solvent or mixture, read-out: Solubility in butylene glycol): 22600 µg/mL and 37100 µM; solubility at 1 h ([1]; octyl-dodecanol, oil or lipid, read-out: Solubility in octyl-dodecanol): 30 µg/mL and 50 µM; solubility at 1 h ([1]; water, read-out: Solubility in water): 160 µg/mL and 270 µM; Keratinocytes DNA (Human keratinocytes; dose 0.03 % w/v): 69 % against control; LDH released (Human keratinocytes; dose 0.03 % w/v): 17 % against control; PGE2 released (Human keratinocytes; dose 0.03 % w/v): 0 % against control; Keratinocytes DNA (Human keratinocytes; dose 0.1 % w/v): 73 % against control; LDH released (Human keratinocytes; dose 0.1 % w/v): 18 % against control; PGE2 released (Human keratinocytes; dose 0.1 % w/v): 10 % against control
CC1OC(OCC2OC(Oc3c(-c4ccc(O)c(O)c4)oc4cc(O)cc(O)c4c3=O)C(O)C(O)C2O)C(O)C(O)C1OC(=O)CCCCCCCC(=O)O (stereo not drawn) [Rutin azelaiate]	67	78	144	64	64	165			0.0025				51	45	28				53	27	PGE2 released (Human keratinocytes; dose 0.01 % w/v): 19 % against control
Rutin octadecandioate	73	46	139	122	15	133			0.0034	23	73	28	49	31	3						
